According to patent publication US20120128639A1, “In Vitro Production Of Oligodendrocytes From Human Umbilical Cord Stem Cells” (UNIVERSITY OF CENTRAL FLORIDA RESEARCH FOUNDATION, INC., priority 2009, published 2012):
Where “and” joins values, the source holds several entries; their conditions need not be identical. Identical values can stand only once. Entries after “also recorded” stand apart in the source; their conditions may differ.

What was measured:
[1] = system: human multipotent progenitor cells (MLPCs) from umbilical cord; assay: Morphological analysis of MLPC differentiation in 2D environment; type: cell-based; conditions: for need of the factor for the desired morphology (omission from differentiation medium): 15 days in differentiation medium
Experimental: MLPCs were seeded on DETA-coated glass coverslips (18 mm) at a density of 4×10^3 cells/cm^2 in growth medium. After 3 days, at about 60% confluency, cells were incubated for 24 hours in pre-induction medium, consisting of DMEM, 15% FBS. […] To initiate differentiation, the pre-induction medium was removed, the cells were washed 2× with Hanks' balanced salts solution (Gibco BRL) and transferred to serum-free differentiation medium.

[2] = system: human multipotent progenitor cells (MLPCs) from umbilical cord; assay: Immunocytochemical analysis of MLPC differentiation into oligodendrocyte lineage in 2D environment; type: cell-based
Experimental: (§1) To characterize cells by immunocytochemistry, the top coverslips, if present, were first carefully removed. Cells were then briefly washed with Hanks' balanced salts solution and fixed in 4% paraformaldehyde for about 18 min. Fixed cells were stored in PBS, permeabilized with 0.5% Triton 100× in PBS for 7 min. blocked with 5% donkey serum for 1 hr, followed by incubation with primary antibody overnight at 4° C. Primary antibodies were mouse monoclonal A2B5 (MAB312, 1:250). O4 (MAB345, 1:100). O1 (MAB344, 1:200), MBP (1:25), rabbit polyclonal anti-galactocerebroside (AB142, 1:200), all from Chemicon, mouse monoclonal beta-2-AR (sc-81577, 1:200), rabbit polyclonal beta-1AR (sc-567, 1:250) from Santa Cruz Biotechnology, and alpha-1-AR (ab3462, 1:1000, Abcam Inc. Cambridge, Mass.). Following a PBS washing, cells were incubated with an Alexa Fluor 488-conjugated anti-mouse IgG or Alexa Fluor 488-conjugated anti-rabbit IgG for 2 hours at room temperature. After a PBS washing, the coverslips were mounted with Vectashield mounting medium (H1000, Vector Laboratories, Burlingame, Calif.) onto slides. For visualizing cellular nuclei, the specimens were counterstained with DAPI. Immunoreactivity was observed and analyzed by using an Ultra VIEW™ LCI confocal imaging system (Perkin Elmer).

[3] = system: human multipotent progenitor cells (MLPCs) from umbilical cord; assay: Immunocytochemical analysis of MLPC differentiation in 3D environment (NE or AR agonists); type: cell-based; conditions: for cells stained positively for A2B5 / cells stained positively for MBP / cells stained positively for O4 / cells stained positively for O1 galactocerebroside: 30 days of differentiation, 20 μM added daily
Experimental: To characterize cells by immunocytochemistry, the top coverslips, if present, were first carefully removed. […] Cambridge, Mass.). Following a PBS washing, cells were incubated with an Alexa Fluor 488-conjugated anti-mouse IgG or Alexa Fluor 488-conjugated anti-rabbit IgG for 2 hours at room temperature. After a PBS washing, the coverslips were mounted with Vectashield mounting medium ([…], Vector Laboratories, Burlingame, Calif.) onto slides. For visualizing cellular nuclei, the specimens were counterstained with DAPI. Immunoreactivity was observed and analyzed by using an Ultra VIEWTM LCI confocal imaging system (Perkin Elmer).

[4] = system: human multipotent progenitor cells (MLPCs) from umbilical cord; conditions: 3D environment; for need of the growth factor for process formation: presence or absence in medium
Experimental: MLPCs were seeded on DETA-coated glass coverslips (18 mm) at a density of 4×10^3 cells/cm^2 in growth medium. After 3 days, at about 60% confluency, cells were incubated for 24 hours in pre-induction medium, consisting of DMEM, 15% FBS. FGF-2, EGF (20 ng/ml each, R & D Systems, Minneapolis, Minn.) and PDGF-AA (10 ng/ml, Chemicon International, Temecula, Calif.). To initiate differentiation, the pre-induction medium was removed, the cells were washed 2× with Hanks' balanced salts solution (Gibco BRL) and transferred to serum-free differentiation medium.
Construction of 3D Environment MLPCs were plated on DETA-coated glass coverslips (18 mm) in growth medium. At about 60% confluence, growth medium was replaced with pre-induction medium. After the medium replacement, another set of coverslips was placed on the top of the cells. Prior to the placement, top coverslips were ethanol sterilized and washed in the pre-induction medium. After 24 hours the pre-induction medium was removed, the cells were washed 2× with Hanks' Balanced Salts Solution and transferred to serum-free differentiation medium.
Phase-contrast images were taken with a commercial Nikon Coolpix 990 camera using the Zeiss Axiovert S100 microscope. Pictures were analyzed using Scion Image Software (Scion Corp., Frederick, Md.).
The morphological and immunocytochemical quantification was performed on undifferentiated stem cells or cells during various differentiation stages. For each coverslip, at least 10 pictures were taken from randomly chosen views under 200× magnification. All the marker-positive cells were counted, as well as the total number of cells in these views. At least three coverslips in each group were quantified and data were expressed as average±standard deviation (SD). Statistical differences between different experimental groups were analyzed by Student's t-test.

α1-ARs = assay: Immunocytochemical analysis of α1-AR expression in MLPCs; type: cell-based, human; conditions: undifferentiated MLPCs; 24 hrs treatment with bFGF alone
Experimental: as §1

[5] = 8 days of differentiation, differentiation medium with 20 μM NE

COC(=O)[C@@]1(O)C[C@H]2O[C@]1(C)n1c3ccccc3c3c4c(c5c6ccccc6n2c5c31)C(=O)NC4 [K252a]
need of the factor for the desired morphology (omission from differentiation medium) [1]: essential

NC[C@H](O)c1ccc(O)c(O)c1 [NE, norepinephrine]
need of the factor for the desired morphology (omission from differentiation medium) [1]: essential
cells that developed multiple processes ([1]; within 8 days of differentiation): approximately 70%
expression of MBP ([2]; 8 days of differentiation): absent
cells with positive staining for A2B5 [2, 5]: 72.4% and 72.4±3.4%
cells with positive staining for O4 [2, 5]: 69.9% and 69.9±4.9%
cells with positive staining for A2B5 ([2]; day 15 of differentiation): 70.3%
cells with positive staining for O4 ([2]; day 15 of differentiation): 69.7%
MBP staining ([2]; day 20 of differentiation): negative
O1 staining ([2]; day 20 of differentiation): negative
cells A2B5 positive ([2]; day 20 of differentiation): 35.0% and 35.0±4.8%
cells O4 positive ([2]; day 20 of differentiation): 49.7% and 49.7±7.9%
expression of MBP ([2]; differentiating cells, time not stated (FIG. 3B)): absent
MBP staining ([3]; 20 days of differentiation): negative
O1 staining ([3]; 20 days of differentiation): negative
cells stained positively for A2B5 [3]: 57.7% and 57.7±3.6%
cells stained positively for MBP [3]: 15.2% and 15.2±0.5%
cells stained positively for O4 [3]: 79.6% and 79.6±2.9%
survival of differentiated cells in culture [4]: more than 40 days

CC(C)NCC(O)c1ccc(O)c(O)c1 (centres unmarked) [isoproterenol]
cells stained positively for A2B5 [3]: 57.9±4.9%
cells stained positively for MBP [3]: negative
cells stained positively for O1 galactocerebroside [3]: negative
cells stained positively for O4 [3]: 42.5±2.7%
cells displaying a bipolar morphology ([4]; daily treatment, first 15 days, unchanged within 30 days): approximately 60%

CNC[C@H](O)c1cccc(O)c1 [phenylephrine]
cells stained positively for A2B5 [3]: 40.5±3.4%
cells stained positively for O1 galactocerebroside [3]: 15.2±1.5%
cells stained positively for O4 [3]: 39.8±2.8%
cells with more mature morphology with developed processes ([4]; day 30): 10% and 15%
cells that began to develop processes ([4]; within 15 days of differentiation): approximately 40%

PDGF
need of the growth factor for process formation [4]: required

bFGF: growth factor in pre-induction and differentiation medium
need of the growth factor for process formation [4]: not essential
nuclear expression of α1-ARs (α1-ARs): significant increase in staining intensity; also recorded: increase nuclear expression of α1-ARs
